In PMC2659609 (Molecular cancer therapeutics, 2008):

Assays:
[1] = system: mouse prostate epithelial cell line MP-1; assay: General cell cytotoxicity assay; assay type: cell-based; settings: 20μM, 72 hours, media and compounds replaced every 24 hours
[2] = system: human hepatoma cell line HepG2; assay: General cell cytotoxicity assay; assay type: cell-based; settings: 20μM, 72 hours, media and compounds replaced every 24 hours
trypsin = trypsin (Sus scrofa, UniProt P00761); assay: Trypsin activity assay, chromogenic substrate pyroGlu-Pro-Arg-pNA, kinetic; assay type: biochemical
Sequence of trypsin (P00761 9-231): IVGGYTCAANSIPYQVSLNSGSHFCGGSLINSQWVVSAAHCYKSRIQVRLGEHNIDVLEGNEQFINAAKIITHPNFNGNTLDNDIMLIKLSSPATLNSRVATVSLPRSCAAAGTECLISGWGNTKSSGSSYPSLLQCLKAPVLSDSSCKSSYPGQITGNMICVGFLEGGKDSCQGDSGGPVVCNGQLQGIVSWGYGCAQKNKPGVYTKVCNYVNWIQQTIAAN

[3] = target: full-length wild-type mouse hepsin expressed in HEK 293FT cells (Mus musculus, UniProt O35453); assay: Hepsin-dependent pericellular serine proteolytic activity assay; assay type: cell-based
Sequence of full-length wild-type mouse hepsin expressed in HEK 293FT cells (O35453 1-416 isoform O35453-2): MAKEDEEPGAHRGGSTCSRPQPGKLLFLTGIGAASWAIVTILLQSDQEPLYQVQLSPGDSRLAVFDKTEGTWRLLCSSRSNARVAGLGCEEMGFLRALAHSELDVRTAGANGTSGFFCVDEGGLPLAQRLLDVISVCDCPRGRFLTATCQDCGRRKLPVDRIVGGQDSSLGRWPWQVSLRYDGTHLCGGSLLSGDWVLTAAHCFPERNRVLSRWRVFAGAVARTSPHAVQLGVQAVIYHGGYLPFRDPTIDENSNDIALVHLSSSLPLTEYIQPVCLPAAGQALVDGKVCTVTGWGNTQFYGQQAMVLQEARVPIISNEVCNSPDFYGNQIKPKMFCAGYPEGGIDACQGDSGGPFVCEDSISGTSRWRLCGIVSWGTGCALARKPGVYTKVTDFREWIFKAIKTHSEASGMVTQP

HEK 293FT cells = assay: Toxicity to HEK 293FT cells under pericellular assay conditions; assay type: cell-based; settings: 24-hour treatment
[4] = system: human prostate cancer cell line LNCaP; assay: General cell cytotoxicity assay; assay type: cell-based; settings: 20μM, 72 hours, media and compounds replaced every 24 hours
thrombin = thrombin (Bos taurus, UniProt P00735); assay: Thrombin activity assay, chromogenic substrate pyroGlu-Pro-Arg-pNA, kinetic; assay type: biochemical
[5] = target: purified recombinant human hepsin (Homo sapiens, UniProt P05981); assay: Hepsin activity assay, chromogenic substrate pyroGlu-Pro-Arg-pNA, kinetic
Sequence of purified recombinant human hepsin (P05981 46-417): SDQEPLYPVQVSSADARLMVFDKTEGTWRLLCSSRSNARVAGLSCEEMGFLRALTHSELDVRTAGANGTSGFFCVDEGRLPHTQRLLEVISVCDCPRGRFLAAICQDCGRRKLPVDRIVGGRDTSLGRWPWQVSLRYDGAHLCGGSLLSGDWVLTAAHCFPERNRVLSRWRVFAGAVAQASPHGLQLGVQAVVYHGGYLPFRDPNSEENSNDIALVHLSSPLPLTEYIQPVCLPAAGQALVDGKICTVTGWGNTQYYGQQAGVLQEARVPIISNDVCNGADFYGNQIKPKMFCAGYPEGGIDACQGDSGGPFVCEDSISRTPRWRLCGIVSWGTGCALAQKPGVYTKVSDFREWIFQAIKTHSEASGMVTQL

[6] = mainly to albumin; cited from earlier work
[7] = approximate; cited from earlier work

Structure (SMILES) | cytotoxicity to MP-1 cells [1] | cytotoxicity to HepG2 cells [2] | cytotoxicity to LNCaP cells [4] | IC50 (thrombin) [µM] | other results
Cc1cccc(CN2CCN(C(c3ccccc3)c3ccc(Cl)cc3)CC2)c1 (stereo not shown) [Compound 13, meclizine] | limited or no cytotoxicity | limited or no cytotoxicity | limited or no cytotoxicity | > 20 | IC50 (trypsin): > 20 µM; attenuation of pericellular proteolytic activity ([3]; 50μM, normalized to hepsin expression level, relative to vehicle): ~25%; overt toxicity to HEK 293FT cells / effect on hepsin expression levels (HEK 293FT cells; 20 and 50μM): without substantially affecting hepsin expression levels or displaying overt toxicity; equilibration time dependence of hepsin inhibition [5]: significantly increased with extended equilibration time; reversibility of hepsin inhibition by dilution ([5]; inhibitor at its IC50, 1 hour at room temperature, then diluted): not reversible by dilution
Cl.NCCc1ccc(S(=O)(=O)F)cc1 [PEFAbloc] | – | – | – | – | inhibition of hepsin proteolytic activity (in words) ([5]; 4mM PEFAbloc, 30 minutes, 0.4nM hepsin): completely inhibited
O=C1c2c(O)cccc2Cc2cccc(O)c21 [Compound 15, anthralin] | toxic | toxic | toxic | > 20 | toxicity to HEK 293FT cells (HEK 293FT cells; 50μM): substantial toxicity
O=C1Nc2ccc(Cl)cc2[C@@](C#CC2CC2)(C(F)(F)F)O1 [efavirenz] | – | – | – | – | protein bound in plasma [6]: more than 99%
Oc1nc2cc(Cl)c(Cl)cc2nc1O [Compound 16, 2,3-dihydroxy-6,7-dichloroquinoxaline] | limited or no cytotoxicity | limited or no cytotoxicity | limited or no cytotoxicity | – | –
CC(C)(Sc1cc(C(C)(C)C)c(O)c(C(C)(C)C)c1)Sc1cc(C(C)(C)C)c(O)c(C(C)(C)C)c1 [Compound 14, probucol] | limited or no cytotoxicity | limited or no cytotoxicity | limited or no cytotoxicity | > 20 | logP [7]: ~10; attenuation of pericellular proteolytic activity (in words) ([3]; 20 and 50μM, 24 hours): did not reduce
